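Values below derive from 48-hour exposures of cells grown in 96-well plates, with endpoints linearly interpolated between the two concentrations bracketing the appropriate inhibition level. TGI: total growth inhibition.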
Legend:
Experiment in all cases: NCI tumour cell line growth inhibition, 48 h
[1] = system: KM12 colon
[2] = system: HT29 colon
[3] = system: SF-539 CNS
[4] = system: OVCAR-3 ovarian
[5] = system: HOP-18 NSCLC
[6] = system: UO-31 renal
[7] = system: NCI-H23 lung
[8] = system: LXFL 529 NSCLC
[9] = system: A498 renal
[10] = system: XF 498 CNS
[11] = system: DMS 273 small cell lung
[12] = system: K-562 leukemia
[13] = system: HOP-92 NSCLC
[14] = system: NCI-H226 lung
[15] = system: RXF 393 renal
[16] = system: IGROV1 ovarian
[17] = system: EKVX NSCLC
[18] = system: SK-MEL-5 melanoma
[19] = system: COLO 205 colon
[20] = system: U251 CNS
[21] = system: DMS 114 small cell lung
[22] = system: MALME-3M melanoma
[23] = system: SNB-78 CNS
[24] = system: RXF-631 renal
[25] = system: SN12C renal
[26] = system: OVCAR-4 ovarian
[27] = system: M14 melanoma
[28] = system: OVCAR-5 ovarian
[29] = system: SW-620 colon
[30] = system: CAKI-1 renal
[31] = system: OVCAR-8 ovarian
[32] = system: ACHN renal
[33] = system: SK-OV-3 ovarian
[34] = system: TK-10 renal
[35] = system: SF-295 CNS
[36] = system: SNB-19 CNS
[37] = system: HL-60(TB) leukemia
[38] = system: SNB-75 CNS
[39] = system: SK-MEL-28 melanoma
[40] = system: RPMI-8226 leukemia
[41] = system: UACC-257 melanoma
[42] = system: SF-268 CNS
[43] = system: M19-MEL melanoma
[44] = system: KM20L2 colon
[45] = system: SR leukemia
[46] = system: HCT-15 colon
[47] = system: NCI-H522 lung
[48] = system: 786-0 renal
[49] = system: HCT-116 colon
[50] = system: HCC-2998 colon
[51] = system: SK-MEL-2 melanoma
[52] = system: MOLT-4 leukemia
[53] = system: UACC-62 melanoma
[54] = system: NCI-H460 lung
[55] = system: CCRF-CEM leukemia
[56] = system: A549 NSCLC
[57] = system: HOP-62 NSCLC
[58] = system: DLD-1 colon
[59] = system: SN12K1 renal
[60] = system: NCI/ADR-RES ovarian
[61] = system: LOX IMVI melanoma
[62] = system: P388 leukemia
[63] = system: MCF7 breast

Measured: TGI

CC(=O)CC(=O)Nc1ccc(OS(N)(=O)=O)cc1
not listed: [59] | [60] | [61] | [62] | [63]
> 100 µM: all other assays above

CSc1nc2c(ncn2C2OC(CO)C(O)C(O)C2O)c(=O)n1C (stereo not drawn)
not listed: [8] | [24] | [27] | [30] | [32] | [34] | [45] | [48]
> 100 µM: all other assays above
